Source: article PMC7187626 (Antimicrobial Agents and Chemotherapy, 2019)
Like-named read-outs stand apart in the source and are kept apart here.

Key:
[1] = test system: P. falciparum blood-stage malaria parasites; conditions: monotherapy, cited from earlier work
[2] = Noncompartmental pharmacokinetic analysis of plasma concentrations after single oral dose of artefenomel and DSM265 in combination; format: in vivo, human; conditions: for Cmax / AUC(0-t) / AUC(0-inf) / Vd/F / half-life / Tmax: human, plasma
Method: Plasma samples were analyzed by liquid chromatography-tandem mass spectrometry (HPLC-MS/MS) as previously described ([2], [4]). The PK parameters determined using noncompartmental analysis were the maximum plasma concentration (Cmax), the time point when Cmax was reached (tmax), the area under the concentration-time curve up to last time point measure (AUC0–last), the area under the concentration-time curve extrapolated to infinity (AUC0–∞), the elimination half-life (t1/2), the apparent clearance (CL/F), and the apparent volume of distribution associated with the terminal elimination phase, where F is bioavailability (Vz/F). The PD variables of interest in this study were the parasite reduction ratio (PRR) and parasite clearance half-life. These provide an estimate of the efficacy of an antimalarial treatment; with the former being the ratio of the parasite density decrease over a 48-h period (expressed as the log10 transformed cohort-specific PRR48 [log10 PRR48]). Noncompartmental PK analysis was performed using PKanalix (version 2019R1, Lixoft SAS, Abtony, France). The area under the concentration-time curve was determined using the linear log trapezoidal method in which linear calculation was used before maximum concentration (Cmax) and logarithmic formula for after Cmax. The slope of the terminal elimination phase (λz) was estimated via a linear regression between log concentrations and time. All parameters were summarized using geometric mean or median and range.

[3] = cohort 1 (n = 8), 200 mg artefenomel plus 100 mg DSM265
[4] = cohort 2 (n = 5), 200 mg artefenomel plus 50 mg DSM265
[5] = oral, cohort 1 (n = 8), 200 mg artefenomel plus 100 mg DSM265, plasma, read-out: Cmax, range
[6] = oral, cohort 1 (n = 8), 200 mg artefenomel plus 100 mg DSM265, read-out: AUC0–last, geometric mean
[7] = oral, cohort 1 (n = 8), 200 mg artefenomel plus 100 mg DSM265, read-out: AUC0–last, range
[8] = oral, cohort 1 (n = 8), 200 mg artefenomel plus 100 mg DSM265, read-out: AUC0–∞, geometric mean
[9] = oral, cohort 1 (n = 8), 200 mg artefenomel plus 100 mg DSM265, read-out: AUC0–∞, range
[10] = oral, cohort 1 (n = 8), 200 mg artefenomel plus 100 mg DSM265, read-out: Vz/F (apparent volume of distribution, terminal phase), geometric mean
[11] = oral, cohort 1 (n = 8), 200 mg artefenomel plus 100 mg DSM265, read-out: Vz/F, range
[12] = oral, cohort 1 (n = 8), 200 mg artefenomel plus 100 mg DSM265, read-out: tmax, median
[13] = oral, cohort 1 (n = 8), 200 mg artefenomel plus 100 mg DSM265, read-out: tmax, range
[14] = oral, cohort 2 (n = 5), 200 mg artefenomel plus 50 mg DSM265, plasma, read-out: Cmax, range
[15] = oral, cohort 2 (n = 5), 200 mg artefenomel plus 50 mg DSM265, read-out: AUC0–last, geometric mean
[16] = oral, cohort 2 (n = 5), 200 mg artefenomel plus 50 mg DSM265, read-out: AUC0–last, range
[17] = oral, cohort 2 (n = 5), 200 mg artefenomel plus 50 mg DSM265, read-out: AUC0–∞, geometric mean
[18] = oral, cohort 2 (n = 5), 200 mg artefenomel plus 50 mg DSM265, read-out: AUC0–∞, range
[19] = oral, cohort 2 (n = 5), 200 mg artefenomel plus 50 mg DSM265, read-out: Vz/F (apparent volume of distribution, terminal phase), geometric mean
[20] = oral, cohort 2 (n = 5), 200 mg artefenomel plus 50 mg DSM265, read-out: Vz/F, range
[21] = oral, cohort 2 (n = 5), 200 mg artefenomel plus 50 mg DSM265, read-out: tmax, median
[22] = oral, cohort 2 (n = 5), 200 mg artefenomel plus 50 mg DSM265, read-out: tmax, range
[23] = po, cohort 1 (n = 8), single oral dose 200 mg artefenomel plus 100 mg DSM265, plasma, read-out: Cmax, geometric mean
[24] = po, cohort 2 (n = 5), single oral dose 200 mg artefenomel plus 50 mg DSM265, plasma, read-out: Cmax, geometric mean

| Compound | Cmax [2, 5] [ng/mL] | AUC(0-t) [2, 6] [µg·h/mL] | AUC(0-t) [2, 7] [µg·h/mL] | AUC(0-inf) [2, 8] [µg·h/mL] | AUC(0-inf) [2, 9] [µg·h/mL] | Vd/F [2, 10] [L] | Vd/F [2, 11] [L] | Tmax [2, 12] [h] | Tmax [2, 13] [h] | Cmax [2, 14] [ng/mL] | AUC(0-t) [2, 15] [µg·h/mL] | AUC(0-t) [2, 16] [µg·h/mL] | AUC(0-inf) [2, 17] [µg·h/mL] | AUC(0-inf) [2, 18] [µg·h/mL] | Vd/F [2, 19] [L] | Vd/F [2, 20] [L] | Tmax [2, 21] [h] | Tmax [2, 22] [h] | Cmax [2, 23] [ng/mL] | Cmax [2, 24] [ng/mL] | also measured |
| --- | --- | --- | --- | --- | --- | --- | --- | --- | --- | --- | --- | --- | --- | --- | --- | --- | --- | --- | --- | --- | --- |
| Cc1cc(Nc2ccc(S(F)(F)(F)(F)F)cc2)n2nc(C(C)(F)F)nc2n1 [DSM265] | 4150 to 6880 | 434 | 329 to 502 | 514 | 360 to 634 | 28 | 22 to 42 | 2 | 1 to 3 | 2150 to 4340 | 232 | 209 to 281 | 271 | 240 to 309 | 26 | 19 to 34 | 2 | 1 to 2 | 5440 | 3580 | parasite clearance half-life ([1]; single dose 150 mg): 9.4 h; recrudescence ([1]; single dose 150 mg): recrudescence occurred in all subjects; parasite clearance half-life ([1]; single dose 400 mg): 5.2 h; recrudescence ([1]; single dose 400 mg): no recrudescence occurred; CL/F (apparent clearance), geometric mean [2, 3]: 0.19 L/h; CL/F, range [2, 3]: 0.16 to 0.28 L/h; CL/F (apparent clearance), geometric mean [2, 4]: 0.18 L/h; CL/F, range [2, 4]: 0.16 to 0.21 L/h; half-life ([2]; oral, cohort 1 (n = 8), 200 mg artefenomel plus 100 mg DSM265, read-out: t1/2 (elimination half-life), geometric mean (converted)): 100 h; half-life ([2]; oral, cohort 1 (n = 8), 200 mg artefenomel plus 100 mg DSM265, read-out: t1/2, range): 76 to 185 h; half-life ([2]; oral, cohort 2 (n = 5), 200 mg artefenomel plus 50 mg DSM265, read-out: t1/2 (elimination half-life), geometric mean (converted)): 97 h; half-life ([2]; oral, cohort 2 (n = 5), 200 mg artefenomel plus 50 mg DSM265, read-out: t1/2, range): 75 to 134 h |
| c1cc([C@H]2CC[C@]3(CC2)OO[C@]2(O3)C3CC4CC(C3)CC2C4)ccc1OCCN1CCOCC1 [Artefenomel] | 150 to 597 | 3.01 | 1.11 to 4.96 | 3.08 | 1.11 to 5.09 | 8900 | 4810 to 16000 | 3 | 2 to 5 | 307 to 522 | 3.25 | 2.66 to 5.7 | 3.32 | 2.68 to 5.91 | 7990 | 4590 to 14300 | 5 | 1 to 6 | 372 | 412 | recrudescence ([1]; single dose 200 mg): recrudescence occurred in all subjects; recrudescence, subjects ([1]; single dose 500 mg): 50% |
